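A five-concentration, 48-hour dose response in 96-well plates underlies each endpoint, interpolated linearly between surrounding concentrations. Abbreviation: GI50, concentration required for 50% inhibition of growth.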 The source made the active and inactive calls. Rule as the data show it: active = GI50 up to about 1.1 µM and inactive = higher.
How the values were obtained:
Test in all cases: NCI tumour cell line growth inhibition, 48 h
RPMI-8226 = tested on: RPMI-8226
DU-145 = tested on: DU-145
SR = tested on: SR
ACHN = tested on: ACHN
COLO 205 = tested on: COLO 205
EKVX = tested on: EKVX
HCC 2998 = tested on: HCC 2998
NCI/ADR-RES = tested on: NCI/ADR-RES
CCRF-CEM = tested on: CCRF-CEM
NCI-H23 = tested on: NCI-H23
HOP-92 = tested on: HOP-92
T47D = tested on: T47D
MDA-MB-231 = tested on: MDA-MB-231
U-251 = tested on: U-251
MCF7 = tested on: MCF7
HCT-116 = tested on: HCT-116
SNB-19 = tested on: SNB-19
SK-MEL-5 = tested on: SK-MEL-5
SNB-75 = tested on: SNB-75
HT-29 = tested on: HT-29

Measured: GI50

CCOc1ccc(NCC2CC/C(=C\C=C\c3ccccc3)C2=O)cc1 (stereo not given)
inactive: RPMI-8226 10.9 µM | DU-145 33.2 µM | SR 4 µM | ACHN 30.5 µM | COLO 205 13.7 µM | EKVX 37.3 µM | HCC 2998 31.9 µM | NCI/ADR-RES 25.7 µM | CCRF-CEM 6.75 µM | NCI-H23 18 µM | HOP-92 16.1 µM | T47D 17.3 µM | MDA-MB-231 9.14 µM | U-251 18.8 µM | MCF7 3.18 µM | HCT-116 6.98 µM | SNB-19 24 µM | SK-MEL-5 16 µM | SNB-75 23.2 µM | HT-29 13.5 µM

COCOC1/C=C/CCCC#C[C@H](C)C(=O)CC1 (stereo not given in full)
inactive: RPMI-8226 2.21 µM | DU-145 14.6 µM | SR 3.46 µM | ACHN 14.2 µM | COLO 205 5.45 µM | EKVX 10.4 µM | HCC 2998 14.6 µM | NCI/ADR-RES 11.8 µM | CCRF-CEM 3.13 µM | NCI-H23 5.97 µM | HOP-92 4.4 µM | T47D 9.04 µM | MDA-MB-231 4.25 µM | U-251 12.2 µM | MCF7 5.55 µM | HCT-116 2.33 µM | SNB-19 17.9 µM | SK-MEL-5 8.77 µM | SNB-75 11.1 µM | HT-29 3.69 µM

CCN1CCC(CNC(=O)c2ccc(N)cc2)N1CC (stereo not given)
inactive: RPMI-8226 > 100 µM | DU-145 > 100 µM | SR > 100 µM | ACHN > 100 µM | COLO 205 > 100 µM | EKVX > 100 µM | HCC 2998 > 100 µM | NCI/ADR-RES > 100 µM | CCRF-CEM > 100 µM | NCI-H23 > 100 µM | HOP-92 > 100 µM | T47D > 100 µM | MDA-MB-231 > 100 µM | U-251 > 100 µM | MCF7 > 100 µM | HCT-116 > 100 µM | SNB-19 > 100 µM | SK-MEL-5 > 100 µM | SNB-75 > 100 µM | HT-29 > 100 µM
